From ChEMBL document CHEMBL3044748, “Phyllostictines AD, oxazatricycloalkenones produced by Phyllosticta cirsii, a potential mycoherbicide for Cirsium arvense biocontrol” (Tetrahedron, 2008)
Calls of active or inactive are those of the source. The rule behind the calls is not given here.

Assays:
Cirsium arvense = test: Phytotoxic activity against Cirsium arvense (Canada thistle) assessed as necrosis spot at 6 x 10^-3 M after 3 days by leaf puncture assay; type: functional, organism-based
Escherichia coli = test: Antibacterial activity against Escherichia coli up to 100 ug/disk; type: functional, organism-based
Artemia salina = test: Zootoxic activity against larvae of Artemia salina (brine shrimp) assessed as mortality; type: ADME, organism-based; settings: in vivo
Lactobacillus sp. = test: Antibacterial activity against Lactobacillus sp. at 5 ug/disk; type: functional, organism-based
Geotrichum candidum = test: Antifungal activity against Galactomyces geotrichum up to 100 ug/disk; type: functional, organism-based
[1] = Zootoxic activity against larvae of Artemia salina (brine shrimp) assessed as mortality at 10^-4 M; type: ADME, organism-based; settings: in vivo

| SMILES | Activity (Cirsium arvense) | Activity (Escherichia coli) | Activity (Artemia salina) | Activity (Lactobacillus sp.) | Activity (Geotrichum candidum) | mortality at 100 µM [1] [%] |
| --- | --- | --- | --- | --- | --- | --- |
| CCN1C(=O)/C2=C3\CO[C@@](OC)([C@@H](O)CCCCC[C@]21C(C)O)[C@H]3O (some centres not stated) | inactive | – | – | – | – | – |
| CO[C@]12OC/C(=C3\C(=O)N(C)CC[C@]3(C)C(=O)CCCC[C@@H]1O)[C@@H]2O | Active | – | – | – | – | – |
| CCN1C(=O)/C2=C3\CO[C@@](OC)([C@@H](O)CCC[C@]21C)[C@H]3O [PHYLLOSTICTINE B] | Active | inactive | Non-toxic | Active | inactive | – |
| CCN1C(=O)/C2=C3\CO[C@@](OC)([C@@H](O)CCCCC[C@]21C)[C@H]3O [PHYLLOSTICTINE A] | Active | inactive | – | Active | inactive | 24 |
